Tests used:
[1] = target: HIV-1 RT (Human immunodeficiency virus type 1 group M subtype B, UniProt P04585); assay: HIV-1 Reverse Transcriptase Assay (RNA-dependent DNA polymerase activity, SPA); format: biochemical; settings: 30° C., 30 min, 10% DMSO
Experimental: RNA-dependent DNA polymerase activity was measured using a biotinylated primer oligonucleotide and tritiated dNTP substrate. Newly synthesized DNA was quantified by capturing the biotinylated primer molecules on streptavidin coated Scintillation Proximity Assay (SPA) beads (Amersham). The sequences of the polymerase assay substrate were: 18 nt DNA primer, 5′-Biotin/GTC CCT GTT CGG GCG CCA-3′; 47 nt RNA template, 5′-GGGUCUCUCUGGUUAGACCACUCUAGCAGUGGCGCCCGAACAGGGAC-3′. The biotinylated DNA primer was obtained from the Integrated DNA Technologies Inc. and the RNA template was synthesized by Dharmacon. The DNA polymerase assay (final volume 50 μl) contained 32 nM biotinylated DNA primer, 64 nM RNA substrate, dGTP, dCTP, dTTP (each at 5 μM), 103 nM [^3H]-dATP (specific activity=[…]), in 45 mM Tris-HCl, pH 8.0, 45 mM NaCl, 2.7 mM Mg(CH3COO)2, 0.045% Triton X-100 w/v, 0.9 mM EDTA. The reactions contained 5 ul of serial compound dilutions in 100% DMSO for IC50 determination and the final concentrations of DMSO were 10%. Reactions were initiated by the addition of 30 μl of the HIV-RT enzyme (final concentrations of 1-3 nM). Protein concentrations were adjusted to provide linear product formation for at least 30 min of incubation. After incubation at 30° C. for 30 min, the reaction was quenched by addition of 50 μl of 200 mM EDTA (pH 8.0) and […] SA-PVT SPA beads (Amersham, RPNQ0009, reconstituted in 20 mM Tris-HCl, pH 8.0, 100 mM EDTA and 1% BSA). The beads were left to settle overnight and the SPA signals were counted in a 96-well top counter-NXT (Packard).

N#Cc1cc(Cl)cc(Oc2c(Br)ccc(Cn3cc(O)c(=O)[nH]c3=O)c2F)c1 [Compound I-30, 3-[6-Bromo-2-fluoro-3-(5-hydroxy-2,4-dioxo-3,4-dihydro-2H-pyrimidin-1-ylmethyl)-phenoxy]-5-chloro-benzonitrile]
IC50 [1]: 34.5 nM
melting point: 238 to 240 °C

N#Cc1cc(Cl)cc(Oc2c(Br)ccc(Cn3cc(Cl)c(=O)[nH]c3=O)c2F)c1 [Compound I-4, 3-[6-Bromo-3-(5-chloro-2,4-dioxo-3,4-dihydro-2H-pyrimidin-1-ylmethyl)-2-fluoro-phenoxy]-5-chloro-benzonitrile]
IC50 [1]: 4.1 nM
melting point: 260.8 to 261.7 °C

C=CCC1C(=O)NC(=O)N1Cc1ccc(Br)c(Oc2cc(Cl)cc(C#N)c2)c1F (stereo not drawn) [Compound I-22, 3-[3-(5-Allyl-2,4-dioxo-imidazolidin-1-ylmethyl)-6-bromo-2-fluoro-phenoxy]-5-chloro-benzonitrile]
IC50 [1]: 1000 nM
melting point: 200 to 201 °C

N#Cc1cc(Cl)cc(Oc2c(Br)ccc(Cn3ccc(=O)[nH]c3=O)c2F)c1 [Compound I-3, 3-[6-Bromo-3-(2,4-dioxo-3,4-dihydro-2H-pyrimidin-1-ylmethyl)-2-fluoro-phenoxy]-5-chloro-benzonitrile]
IC50 [1]: 3.6 nM
melting point: 229 to 230.5 °C

N#Cc1cc(Cl)cc(Oc2c(Br)ccc(Cn3cc(CO)c(=O)[nH]c3=O)c2F)c1 [Compound I-24, 3-[6-Bromo-2-fluoro-3-(5-hydroxymethyl-2,4-dioxo-3,4-dihydro-2H-pyrimidin-1-ylmethyl)-phenoxy]-5-chloro-benzonitrile]
IC50 [1]: 11.1 nM
melting point: 226 to 227 °C

Cc1cn(Cc2ccc(Cl)c(Oc3cc(Cl)cc(C#N)c3)c2F)c(=O)[nH]c1=O [Compound I-17, 3-Chloro-5-[6-chloro-2-fluoro-3-(5-methyl-2,4-dioxo-3,4-dihydro-2H-pyrimidin-1-ylmethyl)-phenoxy]-benzonitrile]
IC50 [1]: 3.1 nM
melting point: 226 to 227.5 °C

CCc1cn(Cc2ccc(Br)c(Oc3cc(C#N)cc(C#N)c3)c2F)c(=O)[nH]c1=O [Compound I-10, 5-[6-Bromo-3-(5-ethyl-2,4-dioxo-3,4-dihydro-2H-pyrimidin-1-ylmethyl)-2-fluoro-phenoxy]-isophthalonitrile]
IC50 [1]: 13.5 nM

CCc1cn(Cc2ccc(Br)c(Oc3cc(Cl)cc(C#N)c3)c2F)c(=O)[nH]c1=O [Compound I-5, 3-[6-Bromo-3-(5-ethyl-2,4-dioxo-3,4-dihydro-2H-pyrimidin-1-ylmethyl)-2-fluoro-phenoxy]-5-chloro-benzonitrile]
IC50 [1]: 1.6 nM
melting point: 224.6 to 225.6 °C

N#Cc1cc(Cl)cc(Oc2c(Br)ccc(Cn3ccc(N)nc3=O)c2F)c1 [Compound I-12, 3-[3-(4-Amino-2-oxo-2H-pyrimidin-1-ylmethyl)-6-bromo-2-fluoro-phenoxy]-5-chloro-benzonitrile]
IC50 [1]: 148 nM
melting point: 240 to 245 °C

Cc1cn(Cc2ccc(Br)c(Oc3cc(C#N)cc(C(F)F)c3)c2F)c(=O)[nH]c1=O [Compound I-27, 3-[6-Bromo-2-fluoro-3-(5-methyl-2,4-dioxo-3,4-dihydro-2H-pyrimidin-1-ylmethyl)-phenoxy]-5-difluoromethyl-benzonitrile]
IC50 [1]: 3.3 nM
melting point: 232.3 to 234.8 °C

N#Cc1cc(Cl)cc(Oc2c(Br)ccc(Cn3cc(C#N)c(=O)[nH]c3=O)c2F)c1 [Compound I-15, 1-[4-Bromo-3-(3-chloro-5-cyano-phenoxy)-2-fluoro-benzyl]-2,4-dioxo-1,2,3,4-tetrahydro-pyrimidine-5-carbonitrile]
IC50 [1]: 61.2 nM
melting point: 246.9 to 247.8 °C

Cc1cn(CCc2ccc(Br)c(Oc3cc(Cl)cc(C#N)c3)c2F)c(=O)[nH]c1=O [Compound I-14, 3-{6-Bromo-2-fluoro-3-[2-(5-methyl-2,4-dioxo-3,4-dihydro-2H-pyrimidin-1-yl)-ethyl]-phenoxy}-5-chloro-benzonitrile]
IC50 [1]: 7 nM
melting point: 198 to 200 °C

Cc1cc(=O)[nH]c(=O)n1Cc1ccc(Br)c(Oc2cc(Cl)cc(C#N)c2)c1F [Compound I-16, 3-[6-Bromo-2-fluoro-3-(6-methyl-2,4-dioxo-3,4-dihydro-2H-pyrimidin-1-ylmethyl)-phenoxy]-5-chloro-benzonitrile]
IC50 [1]: 26.1 nM
melting point: 227 to 228 °C

N#Cc1cc(C#N)cc(Oc2c(Br)ccc(Cn3cc(Cl)c(=O)[nH]c3=O)c2F)c1 [Compound I-9, 5-[6-Bromo-3-(5-chloro-2,4-dioxo-3,4-dihydro-2H-pyrimidin-1-ylmethyl)-2-fluoro-phenoxy]-isophthalonitrile]
IC50 [1]: 5.2 nM
melting point: 255 to 255.6 °C

CCc1ccc(Cn2cc(C)c(=O)[nH]c2=O)c(F)c1Oc1cc(Cl)cc(C#N)c1 [Compound I-25, 3-Chloro-5-[6-ethyl-2-fluoro-3-(5-methyl-2,4-dioxo-3,4-dihydro-2H-pyrimidin-1-ylmethyl)-phenoxy]-benzonitrile]
IC50 [1]: 1.8 nM
melting point: 180.5 to 181.5 °C

N#Cc1cc(C#N)cc(Oc2c(Br)ccc(Cn3ccc(=O)[nH]c3=O)c2F)c1 [Compound I-11, 5-[6-Bromo-3-(2,4-dioxo-3,4-dihydro-2H-pyrimidin-1-ylmethyl)-2-fluoro-phenoxy]-isophthalonitrile]
IC50 [1]: 22.9 nM
melting point: 132 to 133 °C

Cc1cn(Cc2ccc(Br)c(Oc3cc(Cl)cc(C#N)c3)c2F)c(=O)nc1N [Compound I-13, 3-[3-(4-Amino-5-methyl-2-oxo-2H-pyrimidin-1-ylmethyl)-6-bromo-2-fluoro-phenoxy]-5-chloro-benzonitrile]
IC50 [1]: 19.6 nM
melting point: 262.7 to 263.7 °C

N#Cc1cc(Cl)cc(Oc2c(Cl)ccc(Cn3cc(Cl)c(=O)[nH]c3=O)c2F)c1 [Compound I-18, 3-Chloro-5-[6-chloro-3-(5-chloro-2,4-dioxo-3,4-dihydro-2H-pyrimidin-1-ylmethyl)-2-fluoro-phenoxy]-benzonitrile]
IC50 [1]: 3.7 nM
melting point: 267.2 to 268 °C

COc1cn(Cc2ccc(Br)c(Oc3cc(Cl)cc(C#N)c3)c2F)c(=O)[nH]c1=O [Compound I-19, 3-[6-Bromo-2-fluoro-3-(5-methoxy-2,4-dioxo-3,4-dihydro-2H-pyrimidin-1-ylmethyl)-phenoxy]-5-chloro-benzonitrile]
IC50 [1]: 2.9 nM
melting point: 190 to 191.1 °C

CCc1ccc(Cn2cc(Cl)c(=O)[nH]c2=O)c(F)c1Oc1cc(Cl)cc(C#N)c1 [Compound I-26, 3-Chloro-5-[3-(5-chloro-2,4-dioxo-3,4-dihydro-2H-pyrimidin-1-ylmethyl)-6-ethyl-2-fluoro-phenoxy]-benzonitrile]
IC50 [1]: 1.4 nM

N#Cc1cc(Cl)cc(Oc2c(Br)ccc(Cn3cc(C(F)(F)F)c(=O)[nH]c3=O)c2F)c1 [Compound I-7, 3-[6-Bromo-3-(2,4-dioxo-5-trifluoromethyl-3,4-dihydro-2H-pyrimidin-1-ylmethyl)-2-fluoro-phenoxy]-5-chloro-benzonitrile]
IC50 [1]: 6 nM
melting point: 110 to 112 °C

C[C@@H]1C(=O)NC(=O)N1Cc1ccc(Br)c(Oc2cc(Cl)cc(C#N)c2)c1F [Compound I-21, 3-[6-Bromo-2-fluoro-3-((R)-5-methyl-2,4-dioxo-imidazolidin-1-ylmethyl)-phenoxy]-5-chloro-benzonitrile]
IC50 [1]: 16.9 nM
melting point: 119 to 120 °C

Cc1cn(Cc2ccc(Br)c(Oc3cc(Cl)cc(C#N)c3)c2F)c(=S)[nH]c1=O [Compound I-23, 3-[6-Bromo-2-fluoro-3-(5-methyl-4-oxo-2-thioxo-3,4-dihydro-2H-pyrimidin-1-ylmethyl)-phenoxy]-5-chloro-benzonitrile]
IC50 [1]: 5.5 nM
melting point: 225 to 226 °C

N#Cc1cc(Cl)cc(Oc2c(Br)ccc(Cn3cc(F)c(=O)[nH]c3=O)c2F)c1 [Compound I-6, 3-[6-Bromo-2-fluoro-3-(5-fluoro-2,4-dioxo-3,4-dihydro-2H-pyrimidin-1-ylmethyl)-phenoxy]-5-chloro-benzonitrile]
IC50 [1]: 2.2 nM
melting point: 234 to 236 °C

CC1CN(Cc2ccc(Br)c(Oc3cc(Cl)cc(C#N)c3)c2F)C(=O)NC1=O (stereo not drawn) [Compound I-29, 3-[6-Bromo-2-fluoro-3-(5-methyl-2,4-dioxo-tetrahydro-pyrimidin-1-ylmethyl)-phenoxy]-5-chloro-benzonitrile]
IC50 [1]: 85.8 nM
melting point: 227.8 to 228.6 °C

N#Cc1cc(Cl)cc(Oc2c(Br)ccc(CN3CCC(=O)NC3=O)c2F)c1 [Compound I-1, 3-[6-Bromo-3-(2,4-dioxo-tetrahydro-pyrimidin-1-ylmethyl)-2-fluoro-phenoxy]-5-chloro-benzonitrile]
IC50 [1]: 28.7 nM
melting point: 161.5 to 163 °C

CN1C(=O)NC(=O)C1Cc1ccc(Br)c(Oc2cc(Cl)cc(C#N)c2)c1F (stereo not drawn) [Compound I-32, 3-[6-Bromo-2-fluoro-3-(3-methyl-2,5-dioxo-imidazolidin-4-ylmethyl)-phenoxy]-5-chloro-benzonitrile]
IC50 [1]: 6.3 nM

Source: patent publication US8026362B2, “Non-nucleoside reverse transcriptase inhibitors” (Roche Palo Alto LLC, priority 2007, dated 2011)
